According to ChEMBL document CHEMBL1148259, “2,4-Bis(octadecanoylamino)benzenesulfonic acid sodium salt as a novel scavenger receptor inhibitor with low molecular weight” (Bioorg Med Chem Lett, 2004):

Columns and labels:
[1] = biological target: T1, Macrophage scavenger receptor types I and II (Mus musculus) (UniProt P30204); assay: Percent inhibition of DiI-acetyl-LDL binding to scavenger receptor of mouse peritoneal macrophages at 100 uM; assay type: functional
T1 sequence (whole entry): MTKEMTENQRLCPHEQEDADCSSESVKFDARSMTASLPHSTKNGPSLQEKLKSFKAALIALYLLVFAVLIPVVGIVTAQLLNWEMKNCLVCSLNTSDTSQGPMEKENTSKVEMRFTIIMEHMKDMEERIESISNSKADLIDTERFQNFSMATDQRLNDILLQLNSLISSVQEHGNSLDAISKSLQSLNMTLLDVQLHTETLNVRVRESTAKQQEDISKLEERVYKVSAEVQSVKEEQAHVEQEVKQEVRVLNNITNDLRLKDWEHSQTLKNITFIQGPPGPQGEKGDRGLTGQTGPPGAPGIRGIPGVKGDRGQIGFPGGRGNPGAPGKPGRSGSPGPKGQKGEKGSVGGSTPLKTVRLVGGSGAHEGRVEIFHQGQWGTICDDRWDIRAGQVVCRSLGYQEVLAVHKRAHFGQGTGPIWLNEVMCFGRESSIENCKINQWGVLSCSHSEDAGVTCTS

[2] = biological target: T1, Macrophage scavenger receptor types I and II (Mus musculus); assay: Activity against acetyl-LDLbinding to scavenger receptor as percent inhibition of incorporation of DiI-acetyl-LDL into mouse peritoneal macrophages at 30 uM
[3] = biological target: T1, Macrophage scavenger receptor types I and II (Mus musculus); assay: Activity against acetyl-LDLbinding to scavenger receptor as percent inhibition of incorporation of DiI-acetyl-LDL into mouse peritoneal macrophages at 10 uM
[4] = biological target: T1, Macrophage scavenger receptor types I and II (Mus musculus); assay: Inhibitory activity against [125I]acetyl-LDL binding to mouse peritoneal macrophage scavenger receptor at 10 uM
[5] = biological target: T1, Macrophage scavenger receptor types I and II (Mus musculus); assay: Inhibitory activity against [125I]acetyl-LDL binding to mouse peritoneal macrophage scavenger receptor at 30 uM
[6] = biological target: T1, Macrophage scavenger receptor types I and II (Mus musculus); assay: Inhibitory activity against [125I]-acetyl-LDL binding to mouse peritoneal macrophage scavenger receptor at 100 uM
[7] = biological target: T2, Macrophage scavenger receptor types I and II (Mus musculus, UniProt P30204); assay: Inhibitory activity against [125I]acetyl-LDL binding to mouse peritoneal macrophage scavenger receptor
T2 sequence (P30204 whole entry): T1 sequence (whole entry)

Row | Structure (SMILES) | inhibition [1] [%] | inhibition [2] [%] | also measured
1 | CCCCCCCCCCCCCCCCCC(=O)N1C[C@H](OS(=O)(=O)O)C[C@H]1C(=O)NCCCCCCCCCCCCCC | 23.7 |  | 
2 | CCCCCCCCCCCCCCCCCC(=O)Nc1ccc(COS(=O)(=O)O)cc1NC(=O)CCCCCCCCCCCCCCCC | < 10 |  | 
3 | CCCCCCCCCCCCCCCCCC(=O)Nc1ccc(NC(=O)CCCCCCCCCCCCCCCCC)c(S(=O)(=O)O)c1 | 32.1 |  | 
4 | CCCCCCCCCCCCCCCCCCCCCC(=O)Nc1ccc(S(=O)(=O)O)c(NC(=O)CCCCCCCCCCCCCCCCCCCCC)c1 | 85.7 | 48 | 
5 | CCCCCCCCCCCCCCCCCC(=O)Nc1ccc(C(=O)O)c(NC(=O)CCCCCCCCCCCCCCCCC)c1 | < 10 |  | 
6 | CCCCCCCCCCCCCCCCCC(=O)Nc1cc(NC(=O)CCCCCCCCCCCCCCCCC)cc(S(=O)(=O)O)c1 | 71.2 | 46.2 | inhibition [3]: 18.5%

Now from value to molecule, other results behind:

Row | inhibition [1] [%] | inhibition [2] [%] | Structure (SMILES) | also measured
7 | < 10 |  | CCCCCCCCCCCCCCCCCC(=O)Nc1ccc(S(=O)(=O)O)cc1 | 
8 | 61.4 | 43.8 | CCCCCCCCCCCCCCCCCC(=O)NC(COS(=O)(=O)O)C(=O)NCCCCCCCCCCCCCC (stereo not drawn) | inhibition [3]: 20.5%; inhibition [4]: 6.6%; inhibition [5]: 41.8%; inhibition [6]: 81.1%
9 | 66.6 | 48 | CCCCCCCCCCCCCC(=O)Nc1ccc(S(=O)(=O)O)c(NC(=O)CCCCCCCCCCCCC)c1 | 
10 | 84.6 | 72.5 | CCCCCCCCCCCCCCCCCC(=O)Nc1ccc(S(=O)(=O)O)c(NC(=O)CCCCCCCCCCCCCCCCC)c1 | inhibition [3]: 57%; IC50 [7]: 2000 nM
11 | < 10 |  | CCCCCCCCCC(=O)Nc1ccc(S(=O)(=O)O)c(NC(=O)CCCCCCCCC)c1 | 
